From publication PMC4506092, “Utilizing Chemical Genomics to Identify Cytochrome b as a Novel Drug Target for Chagas Disease” (PLoS Pathogens, 2015)
Values joined by “and” are separate entries in the source; they are usually repeats but may differ in a detail not shown here. Identical values can stand only once. Like-named read-outs stand apart in the source and are kept apart here.

What was measured:
[1] = tested on: S. cerevisiae strain NF7061; experiment: S. cerevisiae susceptibility assay, YPD (dextrose) medium; type: cell-based, Saccharomyces cerevisiae; conditions: 24 hours
Description: (§1) The minimal inhibitory concentrations (MIC) of the compounds for inhibition of S. cerevisiae drug pump knock-out strain NF7061 (MATa his3Δ 1; leu2Δ 0; met15Δ 0; ura3Δ 0; snq2::KanMX; pdr5::KanMX; pdr1::NAT1; pdr3::KanMX; yap1::NAT1; pdr2::LEU2; yrm1::MET; yor1::LYS2) were determined by a modification of the microdilution technique described elsewhere. Briefly, two-fold dilutions of the compound solution in DMSO were made. They were added to each well of 96-well assay plate containing 200 μL per well of either YPD (1% Difco Yeast Extract, 2% Difco Bacto Peptone and 2% Dextrose) or YPG (3% of glycerol in replacement of 2% Dextrose in YP) medium. Early stationary yeast NF7061 cells grown in either medium were collected and resuspended to 2 × 10^5 cells / mL. Ten microliters of the yeast cell suspension were inoculated to each well of the plates containing medium and compound to achieve a final inoculum of approximately 10^4 CFU / mL. The plates were incubated at 30°C for 24 hours (containing YPD) or 48 hours (containing YPG).

[2] = tested on: S. cerevisiae strain NF7061; experiment: S. cerevisiae susceptibility assay, YPG (glycerol) medium; type: cell-based, Saccharomyces cerevisiae; conditions: 48 hours
Description: as §1

[3] = tested on: T. cruzi epimastigotes (GNF7686-resistant, DR); experiment: T. cruzi epimastigote growth assay (CellTiter-Glo), GNF7686-resistant; type: cell-based, Trypanosoma cruzi
Description: To determine compound activity on the T. cruzi epimastigote form, epimastigotes (20 μL; 2.5 × 10^5 parasites / mL) were added to 384-well assay plates containing 20 μL of LIT media with pre-dispensed compounds (0.2% DMSO final concentration) and incubated for seven days at 26°C / 0% CO2. Parasite viability was assessed at the end of this incubation period using the CellTiter-Glo Luminescent Cell Viability Assay (Promega). Luminescence as a measure of parasite viability was measured on the EnVision plate reader.
Resistant epimastigotes were cloned by the limiting dilution technique.

[4] = tested on: L. donovani promastigotes; experiment: Leishmania donovani promastigote proliferation assay; type: cell-based
[5] = tested on: T. b. brucei bloodstream form; experiment: T. b. brucei bloodstream form in vitro efficacy assay; type: cell-based, Trypanosoma brucei brucei; conditions: 48 hours, read-out: T. b. Brucei EC50, BSF
Description: Trypanosoma brucei brucei (T. b. brucei) bloodstream form (strain Lister 427) was maintained in HMI-9 medium: IMDM (Iscove's Modified Dulbecco's Media), 10% heat-inactivated FBS, 10% Serum Plus medium supplement (SAFC biosciences), 1 mM hypoxanthine, 50 μM bathocuproine disulfonate.Na2, 1.5 mM cysteine, 1 mM pyruvate, 39 μg/mL thymidine, and 0.2 mM 2-mercapthoethanol) at 37°C / 5% CO2.
(§2) For compound screening, parasites were seeded into 384-well assay plates containing HMI-9 with pre-dispensed compounds (0.25% final DMSO concentration) at a density of 6,000 cells / well, and plates were then incubated for 48 hours at 37°C / 5% CO2. Cell viability was assessed using the CellTiter-Glo Luminescent Cell Viability Assay (Promega).

NIH/3T3 fibroblast cells = experiment: Mammalian cell cytotoxicity assay (CellTiter-Glo); type: cell-based, mouse; conditions: for Toxicity on the host 3T3 cells (in words): host cells of the intracellular amastigote assay, prevented determination of amastigote EC50
Description: NIH/3T3 fibroblast cells were maintained in RPMI-1640 medium supplemented with 10% heat-inactivated FBS and 100 IU penicillin / 100 μg streptomycin per mL at 37°C / 5% CO2. For compound screening, cells were diluted to 4 × 10^4 cells / mL in assay medium (RPMI-1640, 5% FBS, and 100 IU penicillin / 100 μg streptomycin per mL) and seeded at 50 μL / well into 384-well plates. Following overnight incubation, compounds were added to each well (0.2% DMSO final concentration) and plates were further incubated for 96 hours. Cell viability was assessed using the CellTiter-Glo Luminescent Cell Viability Assay (Promega). Measured luminescence values were normalized to the value obtained for 0.2% DMSO, and plotted against the corresponding compound concentration for half maximal cytotoxic concentration (CC50) value determination.

P. falciparum D10attB = experiment: P. falciparum SYBR Green proliferation assay, D10attB line; type: cell-based, Plasmodium falciparum
Description: GNF7686 and cytochrome b inhibitors were assayed for activity on two Plasmodium falciparum (P. falciparum) lines: D10attB and yDHODH-D10attB. The D10attB line is reliant on the coenzyme Q-dependent malarial dihydroorotate dehydrogenase (PfDHODH), whereas the yDHODH-D10attB line expresses also the fumarate-utilizing Saccharomyces cerevisiae (S. cerevisiae) DHODH, which circumvents reliance on PfDHODH and renders this line fully resistant to cytochrome b inhibitors. The use of these two lines allows for distinction of selection of potent cytochrome b inhibitors as described in detail in the Results section. Growth and viability of P. falciparum cell lines (in the presence or absence of drug) in infected erythrocytes were assessed using a SYBR Green-based proliferation assay exactly as described previously.

[6] = tested on: L. donovani axenic amastigotes; experiment: Leishmania donovani axenic amastigote in vitro efficacy assay; type: cell-based; conditions: 48 hours
Description: Leishmania donovani (L. donovani) axenic amastigotes (strain MHOM/SD/62/1S-CL2D) were maintained at 37°C / 5% CO2 in RPMI-1640 medium containing 4 mM L-glutamine, 20% heat inactivated FBS, 100 IU penicillin / 100 μg streptomycin per mL, 23 μM folic acid, 100 µM adenosine, 22 mM D-glucose, and 25 mM 2-(N-morpholino)ethanesulfonic acid (pH 5.5 adjusted at 37°C using 1M HCl).
as §2, with “axenic amastigotes” for “parasites”, “384-well” for “384-well assay”, “axenic amastigote medium” for “HMI-9”, “9,600” for “6,000”, “well. Plates” for “well, and plates”, “were” for “were then”

[7] = MIC visual growth inhibition screen
[8] = Saccharomyces cerevisiae, NF7061, MIC visual growth inhibition screen
[9] = Trypanosoma cruzi, 168 h, GNF7686-resistant T. cruzi culture, seven days, read-out: Epimastigote EC50, DR
[10] = Plasmodium falciparum; read-out: P. falciparum EC50, D10attB

SMILES | EC50 [1, 7] | EC50 [2, 7] | EC50 ([3]; GNF7686-resistant T. cruzi culture, seven days, read-out: Epimastigote EC50, DR) | EC50 [4] | EC50 [5] | Toxicity on the host 3T3 cells (in words) (NIH/3T3 fibroblast cells) | EC50 (P. falciparum D10attB; read-out: P. falciparum EC50, D10attB) | EC50 [6] | EC50 [1, 8] | EC50 [2, 8] | Shift of epimastigote EC50, GNF7686-resistant vs wild-type [3] | EC50 [3, 9] | EC50 ([4]; Leishmania donovani) | EC50 ([5]; Trypanosoma brucei) | EC50 (P. falciparum D10attB; Plasmodium falciparum, read-out: P. falciparum EC50, D10attB) | EC50 ([6]; Leishmania donovani) | EC50 ([3]; Trypanosoma cruzi, epimastigote clones, read-out: EC50 of three clones isolated from the GNF7686-resistant culture) | Mammalian cell proliferation: no effect observed up to (NIH/3T3 fibroblast cells; mouse) | EC50 (P. falciparum D10attB; [10])
CO/C(=C/C(N)=O)[C@H](C)[C@H](/C=C/c1csc(-c2csc([C@@H](C)/C=C/C=C/C(C)C)n2)n1)OC [Myxothiazol] | 30 ± 10 µM | 0.07 ± 0.01 µM | 0.43 ± 0.08 µM | 3.1 ± 0.45 µM | 17.2 ± 3.1 µM | toxicity | 0.3 ± 0.01 µM | 9.6 ± 3.9 µM |  |  |  |  |  |  |  |  |  |  | 
CCCCCC[C@H]1C(=O)O[C@H](C)[C@H](NC(=O)c2cccc(NC=O)c2O)C(=O)O[C@@H](C)[C@@H]1OC(=O)CC(C)C [Antimycin A] |  |  |  |  |  | toxicity |  |  | 5 µM | < 0.002 µM | 40 fold | 1.8 ± 0.21 µM | 0.01 ± 0.003 µM | > 25 µM | 0.7 ± 0.34 µM | 0.01 ± 0.004 µM |  |  | 
CCc1c(C)c(C#N)c2nc3ccccc3n2c1O [GNF7686] |  |  |  |  |  |  |  |  | > 40 µM | 5 µM | ~ 5 fold and ~ 4 fold | 0.73 ± 0.04 µM | 0.46 ± 0.12 µM | > 25 µM |  | 0.46 ± 0.28 µM | ~1 µM | > 25 µM | > 12.5 µM
CO\C=C(C(=O)OC)/C(C)=C\C=C\c1ccccc1 [Strobilurin] |  |  |  |  |  | toxicity |  |  | > 40 µM | 0.1 ± 0.02 µM |  | 0.34 ± 0.01 µM | 4.3 ± 0.82 µM | > 25 µM |  | 9.1 ± 2.5 µM |  |  | 0.46 ± 0.27 µM
O=C(Cn1ccnc1[N+](=O)[O-])NCc1ccccc1 [Benznidazole] |  |  |  |  |  |  |  |  | > 40 µM | > 40 µM |  | 6.7 ± 0.6 µM | > 25 µM | > 25 µM |  | > 25 µM |  |  | > 12.5 µM
